Measurements: patent US9938262B2, “Benzamides” (Merck Patent GmbH, priority 2011, dated 2018)
pEC50: −log10 of the molar value. Like-named read-outs stand apart in the source and are kept apart here.

Biological target: T1, FSHR (Homo sapiens, UniProt P23945)
T1 construct: expressed in transfected cells; host or cells: CHO (Cho-FSHR-LUC-1-1-43)
Experiment: EC50 of cyclic AMP production in CHO FSHR cells + EC20 FSH (Assay A)
Type: cell-based
Conditions: for pEC50: CHO FSHR cells + EC20 FSH, read-out: Assay A EC50 of cyclic AMP production; for activation at 5 µM: 1 h, effect relative to maximum response of the FSH standard
Method in brief: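 cAMP HTRF ratio (665/620 nm) read after 1 h, 37 °C exposure of CHO-FSHR cells to compound in presence of EC20 FSH ([…]) and IBMX 200 μM. Responses given relative to FSH standard maximum; EC50 derived.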

T1 sequence (P23945 18-695): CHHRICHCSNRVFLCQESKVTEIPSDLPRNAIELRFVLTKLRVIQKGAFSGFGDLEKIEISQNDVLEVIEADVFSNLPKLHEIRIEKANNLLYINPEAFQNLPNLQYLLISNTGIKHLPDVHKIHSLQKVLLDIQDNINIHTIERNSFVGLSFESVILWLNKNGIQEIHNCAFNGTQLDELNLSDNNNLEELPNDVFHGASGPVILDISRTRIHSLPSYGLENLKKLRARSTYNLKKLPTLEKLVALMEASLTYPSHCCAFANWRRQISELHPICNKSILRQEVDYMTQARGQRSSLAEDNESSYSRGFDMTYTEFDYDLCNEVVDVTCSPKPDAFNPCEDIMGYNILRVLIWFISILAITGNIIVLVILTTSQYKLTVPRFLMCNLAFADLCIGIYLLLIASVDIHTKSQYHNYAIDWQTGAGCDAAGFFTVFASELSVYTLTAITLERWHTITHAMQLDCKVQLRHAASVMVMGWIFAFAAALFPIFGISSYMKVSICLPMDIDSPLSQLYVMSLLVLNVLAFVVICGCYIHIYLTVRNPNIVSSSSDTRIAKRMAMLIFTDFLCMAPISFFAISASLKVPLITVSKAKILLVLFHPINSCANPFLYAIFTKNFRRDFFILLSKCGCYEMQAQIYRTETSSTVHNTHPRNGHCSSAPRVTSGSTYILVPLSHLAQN
T1 sequence (P01215 25-116 partner): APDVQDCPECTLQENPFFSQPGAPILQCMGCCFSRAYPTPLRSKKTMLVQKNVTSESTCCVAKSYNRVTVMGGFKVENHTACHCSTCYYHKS
T1 sequence (P01225 19-129 partner): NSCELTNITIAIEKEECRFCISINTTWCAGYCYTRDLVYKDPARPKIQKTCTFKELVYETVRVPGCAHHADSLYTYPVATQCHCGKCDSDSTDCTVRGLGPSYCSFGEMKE

Row | Structure (SMILES) | pEC50 (Table 1) | pEC50 (Table 2) | also measured
1 | Cc1ccccc1N1CCN(c2ccc(C(=O)NCCCN3CCCC3=O)cc2NC(=O)CC2CC2)CC1 [Compound 219, 3-(2-Cyclopropyl-acetylamino)-N-[3-(2-oxo-pyrrolidin-1-yl)-propyl]-4-(4-o-tolyl-piperazin-1-yl)-benzamide] | 5.00 to 6.00 |  | 
2 | Cc1ccccc1N1CCN(c2ccc(C(=O)N[C@H]3O[C@@H](CO)[C@H](O)[C@@H]3O)cc2NC(=O)c2ccco2)CC1 [Compound 222] | 6.00 to 7.00 |  | 
3 | Cc1ccccc1N1CCN(c2ccc(C(=O)NCCCN3CCCC3=O)cc2NS(=O)(=O)c2cccc3ncccc23)CC1 [Compound 229] |  |  | activation at 5 µM (Table 1): 41%
4 | Cc1ccccc1N1CCN(c2ccc(C(=O)NCCC3C[C@H]4CC[C@@H]3C4)cc2NC(=O)c2coc(C3CC3)n2)CC1 (stereo partly shown) [Compound 231] | 6.00 to 7.00 |  | 
5 | Cc1ccccc1N1CCN(c2ccc(C(=O)NCCC(=O)N3CCCC3)cc2NC(=O)c2coc(C3CC3)n2)CC1 [Compound 234] | 5.00 to 6.00 |  | 
6 | Cc1ccccc1N1CCN(c2ccc(C(=O)NCc3ccc(Cl)cc3)cc2NC(=O)c2coc(C3CC3)n2)CC1 [Compound 235] | 5.00 to 6.00 |  | 
7 | Cc1ccccc1N1CCN(c2ccc(C(=O)NCc3cccc(-c4c[nH]cn4)c3)cc2NC(=O)c2ccco2)CC1 [Compound 236] | 6.00 to 7.00 |  | 
8 | Cc1ccccc1N1CCN(c2ccc(C(=O)NCc3cccc(-c4ccnn4C)c3)cc2NC(=O)c2ccco2)CC1 [Compound 237] | 6.00 to 7.00 |  | 
9 | Cc1ccccc1N1CCN(c2ccc(C(=O)NCCCN3CCCC3=O)cc2NS(=O)(=O)Cc2cccc3cccnc23)CC1 [Compound 239] |  |  | activation at 5 µM (Table 1): 43%
10 | Cc1ccccc1N1CCN(c2ccc(C(=O)NCc3cccc(-c4ccn(C)n4)c3)cc2NC(=O)c2ccco2)CC1 [Compound 240] | 6.00 to 7.00 |  | 
11 | Cc1ccccc1N1CCN(c2ccc(C(=O)NCCCN3CCCC3=O)cc2Nc2ncccn2)CC1 [Compound 242, N-[3-(2-Oxo-pyrrolidin-1-yl)-propyl]-3-(pyrimidin-2-ylamino)-4-(4-o-tolyl-piperazin-1-yl)-benzamide] | 5.00 to 6.00 |  | 
12 | Cc1ccc(N2CCN(c3ccc(C(=O)NCCCN4CCCC4=O)cc3NC(=O)c3coc(C4CC4)n3)CC2)cc1 [Compound 245] |  |  | activation at 5 µM (Table 1): 12%
13 | Cc1ccccc1N1CCN(c2ccc(C(=O)NCc3cccc(-c4nnn[nH]4)c3)cc2NC(=O)c2ccco2)CC1 [Compound 248] | > 7.00 |  | 
14 | Cc1ccc(N2CCN(c3ccc(C(=O)NCCCN4CCCC4=O)cc3NC(=O)c3coc(C4CC4)n3)CC2)cc1C [Compound 252] |  |  | activation at 5 µM (Table 1): 14%
15 | Cc1ccc(C(=O)Nc2cc(C(=O)NCCCN3CCCC3=O)ccc2N2CCN(Cc3ccccc3C)[C@@H](C)C2)o1 [Compound 253] |  |  | activation at 5 µM (Table 1): 24%
16 | Cc1ccc(C(=O)Nc2cc(C(=O)NCCCN3CCCC3=O)ccc2N2CCN(Cc3ccccc3C(F)(F)F)[C@@H](C)C2)o1 [Compound 254] |  |  | activation at 5 µM (Table 1): 20%

Row | Structure (SMILES) | pEC50 (Table 1) | pEC50 (Table 2) | also measured
17 | Cc1ccc(C(=O)Nc2cc(C(=O)NCCCN3CCCC3=O)ccc2N2CCN(Cc3ccccc3Cl)[C@@H](C)C2)o1 [Compound 255] |  |  | activation at 5 µM (Table 1): 22%
18 | Cc1ccccc1CN1CCN(c2ccc(C(=O)NCCCN3CCCC3=O)cc2NC(=O)c2coc(C3CC3)n2)C[C@@H]1C [Compound 256] |  |  | activation at 5 µM (Table 1): 26%
19 | C[C@H]1CN(c2ccc(C(=O)NCCCN3CCCC3=O)cc2NC(=O)c2coc(C3CC3)n2)CCN1Cc1ccccc1C(F)(F)F [Compound 257] |  |  | activation at 5 µM (Table 1): 21%
20 | Cc1csc(-c2cccc(CNC(=O)c3ccc(N4CCN(c5ccccc5C)CC4)c(NC(=O)c4ccco4)c3)c2)n1 [Compound 262] | 6.00 to 7.00 |  | 
21 | Cc1ccccc1N1CCN(c2ccc(C(=O)NCc3cccc(S(N)(=O)=O)c3)cc2NC(=O)c2ccco2)CC1 [Compound 266] |  | > 7.00 | 
22 | Cc1ccccc1N1CCN(c2ccc(C(=O)NC3(c4cccc(C(=O)O)c4)CC3)cc2NC(=O)c2ccco2)CC1 [Compound 267] |  | 5.00 to 6.00 | 
23 | Cc1ccc(C(=O)Nc2cc(C(=O)NCCCN3CCCC3=O)ccc2N2CCN(c3ccccc3N)CC2)o1 [Compound 272] |  |  | activation at 5 µM (Table 2): 30%
24 | CC(C)(C)OC(=O)NC1CCN(c2ccc(C(=O)NCCCN3CCCC3=O)cc2NC(=O)c2coc(C3CC3)n2)CC1 [Compound 273] |  | 5.00 to 6.00 | 
25 | COc1ccccc1CNC(=O)c1ccc(N2CCN(c3ccccc3C)CC2)c(NC(=O)c2coc(C3CC3)n2)c1 [Compound 277] |  | 6.00 to 7.00 | 
26 | Cc1ccccc1N1CCN(c2ccc(C(=O)NCCCC3CCOC3)cc2NC(=O)c2coc(C3CC3)n2)CC1 (stereo not shown) [Compound 282] |  | 6.00 to 7.00 | 
27 | Cc1ccccc1N1CCN(c2ccc(C(=O)NCCCN3CCCC3=O)cc2NC(=O)c2cc(C3CC3)n[nH]2)CC1 [Compound 284] |  | 6.00 to 7.00 | 
28 | Cc1ccccc1N1CCN(c2ccc(C(=O)NCCCN3CCCC3=O)cc2NC(=O)c2nc(C3CC3)cs2)CC1 [Compound 285] |  | 6.00 to 7.00 | 
29 | Cc1ccccc1N1CCN(c2ccc(C(=O)NCCN3CCCC3=O)cc2NC(=O)c2coc(C3CC3)n2)CC1 [Compound 288] |  | 6.00 to 7.00 | 
30 | Cc1ccccc1N1CCN(c2ccc(C(=O)NCC(=O)NC3CCCC3)cc2NC(=O)c2coc(C3CC3)n2)CC1 [Compound 294] |  | 5.00 to 6.00 | 
31 | COc1cc(CNC(=O)c2ccc(N3CCN(c4ccccc4C)CC3)c(NC(=O)c3coc(C4CC4)n3)c2)cc(OC)c1 [Compound 295] |  | 6.00 to 7.00 | 

Now from value to compound, other results behind:

Row | pEC50 (Table 1) | pEC50 (Table 2) | Structure (SMILES) | also measured
32 | < 5.00 |  | Cc1ccccc1N1CCN(c2ccc(C(=O)NCCCN3CCCC3=O)cc2NC(=O)c2ccc(C(N)=O)o2)CC1 [Compound 216, Furan-2,5-dicarboxylic acid 2-amide 5-{[5-[3-(2-oxo-pyrrolidin-1-yl)-propylcarbamoyl]-2-(4-o-tolyl-piperazin-1-yl)-phenyl]-amide}] | 
33 | 6.00 to 7.00 |  | Cc1ccc(C(=O)Nc2cc(C(=O)NCc3cccnc3)ccc2N2CCN(c3ccccc3C)CC2)o1 [Compound 218, 5-Methyl-furan-2-carboxylic acid [5-[(pyridin-3-ylmethyl)-carbamoyl]-2-(4-o-tolyl-piperazin-1-yl)-phenyl]-amide] | 
34 | 5.00 to 6.00 |  | CCCc1cc(C(=O)Nc2cc(C(=O)NCCCN3CCCC3=O)ccc2N2CCN(c3ccccc3C)CC2)co1 [Compound 220] | 
35 | 6.00 to 7.00 |  | COc1ccc(C(=O)Nc2cc(C(=O)NCCCN3CCCC3=O)ccc2N2CCN(c3ccccc3C)CC2)nc1 [Compound 221] | 
36 | 6.00 to 7.00 |  | C=CC(=O)NCCNC(=O)c1ccc(N2CCN(c3ccccc3C)CC2)c(NC(=O)c2ccco2)c1 [Compound 225] | 
37 | 6.00 to 7.00 |  | Cc1ccccc1N1CCN(c2ccc(C(=O)NCCCc3cn[nH]c3)cc2NC(=O)c2coc(C3CC3)n2)CC1 [Compound 232] | 
38 | 6.00 to 7.00 |  | Cc1ccccc1N1CCN(c2ccc(C(=O)NCc3ccccc3C(N)=O)cc2NC(=O)c2ccco2)CC1 [Compound 238] | 
39 | 5.00 to 6.00 |  | Cc1cccc(N2CCN(c3ccc(C(=O)NCCCN4CCCC4=O)cc3NC(=O)c3ccc(C)o3)CC2)c1 [Compound 243] | 
40 | > 7.00 |  | Cc1ccccc1N1CCN(c2ccc(C(=O)NCc3ccc(C(N)=O)cc3)cc2NC(=O)c2ccco2)CC1 [Compound 247] | 
41 | 5.00 to 6.00 |  | Cc1ccc(C(=O)Nc2cc(C(=O)NCCCNC(=O)OC(C)(C)C)ccc2N2CCN(c3ccccc3C)CC2)o1 [Compound 258, {3-[3-[(5-Methyl-furan-2-carbonyl)-amino]-4-(4-o-tolyl-piperazin-1-yl)-benzoylamino]-propyl}-carbamic acid tert-butyl ester] | 
42 | 6.00 to 7.00 |  | CC(=O)NCCCNC(=O)c1ccc(N2CCN(c3ccccc3C)CC2)c(NC(=O)c2ccc(C)o2)c1 [Compound 259, 5-Methyl-furan-2-carboxylicacid [5-(3-acetylaminopropylcarbamoyl)-2-(4-o-tolyl-piperazin-1-yl)-phenyl]-amide] | 
43 | 5.00 to 6.00 |  | Cc1ccc(C(=O)Nc2cc(C(=O)NCCCN3CCCC3=O)ccc2N2CCN(c3ccccc3[N+](=O)[O-])CC2)o1 [Compound 261] | 
44 |  | 6.00 to 7.00 | CCNC(=O)NCCCNC(=O)c1ccc(N2CCN(c3ccccc3C)CC2)c(NC(=O)c2ccc(C)o2)c1 [Compound 270] | 
45 |  | 6.00 to 7.00 | COC(=O)NCCCNC(=O)c1ccc(N2CCN(c3ccccc3C)CC2)c(NC(=O)c2ccc(C)o2)c1 [Compound 271] | 
46 |  | 6.00 to 7.00 | Cc1ccccc1N1CCN(c2ccc(C(=O)NCCCc3c[nH]cn3)cc2NC(=O)c2coc(C3CC3)n2)CC1 [Compound 274] | 
47 |  | 6.00 to 7.00 | Cc1ccccc1N1CCN(c2ccc(C(=O)NCCCn3cccn3)cc2NC(=O)c2coc(C3CC3)n2)CC1 [Compound 275] | 
48 |  | 6.00 to 7.00 | COc1cccc(CNC(=O)c2ccc(N3CCN(c4ccccc4C)CC3)c(NC(=O)c3coc(C4CC4)n3)c2)c1 [Compound 276] | 
49 |  | 5.00 to 6.00 | Cc1ccccc1N1CCN(c2ccc(C(=O)NCCCc3ccccc3)cc2NC(=O)c2coc(C3CC3)n2)CC1 [Compound 278] | 
50 |  | 6.00 to 7.00 | Cc1ccccc1N1CCN(c2ccc(C(=O)NCCCn3cccc3)cc2NC(=O)c2coc(C3CC3)n2)CC1 [Compound 279] | 
51 |  | 6.00 to 7.00 | Cc1ccccc1N1CCN(c2ccc(C(=O)NCC(C)CN3CCCC3=O)cc2NC(=O)c2ccco2)CC1 (stereo not shown) [Compound 280] | 
52 |  | 6.00 to 7.00 | CCC(CCNC(=O)c1ccc(N2CCN(c3ccccc3C)CC2)c(NC(=O)c2ccco2)c1)N1CCCC1=O (stereo not shown) [Compound 281] | 
53 |  | 5.00 to 6.00 | Cc1ccccc1N1CCN(c2ccc(C(N)=O)cc2NC(=O)c2ccco2)CC1 [Compound 283] | 
54 |  | 6.00 to 7.00 | Cc1ccccc1N1CCN(c2ccc(C(=O)NCCCN3C(=O)CSC3=O)cc2NC(=O)c2coc(C3CC3)n2)CC1 [Compound 289] | 
55 |  | 6.00 to 7.00 | COc1ccc(CNC(=O)c2ccc(N3CCN(c4ccccc4C)CC3)c(NC(=O)c3coc(C4CC4)n3)c2)cc1OC [Compound 290] | 
56 |  | 6.00 to 7.00 | Cc1ccccc1N1CCN(c2ccc(C(=O)NCCCn3ccnc3)cc2NC(=O)c2coc(C3CC3)n2)CC1 [Compound 291] | 
57 |  | 6.00 to 7.00 | Cc1ccccc1N1CCN(c2ccc(C(=O)NCCCn3ccnc3C)cc2NC(=O)c2coc(C3CC3)n2)CC1 [Compound 292] | 
58 |  | 6.00 to 7.00 | Cc1ccccc1N1CCN(c2ccc(C(=O)NCCc3c[nH]cn3)cc2NC(=O)c2coc(C3CC3)n2)CC1 [Compound 293] | 
